Literature values as cited in US20190151294A1, “TREATMENT OF ALCOHOLISM AND DEPRESSION AND/OR DYSPHORIC MOOD USING IBUDILAST” (MEDICINOVA, INC., priority 2016, published 2019).

Test system: P and HAD1 rats and mouse model of ethanol dependence
Conditions: in these models of elevated alcohol intake; cited from earlier work

Compound	selective reduction of ethanol drinking
CC[C@@H](C(N)=O)N1CCCC1=O [levatiracetam]	do not selectively reduce ethanol drinking
OCCOCCN1CCN(C2=Nc3ccccc3Sc3ccccc32)CC1 [quetiapine]	do not selectively reduce ethanol drinking
